# How the values were obtained:
# PDE3 = target: T1, PDE3 (Homo sapiens, UniProt Q14432); assay: PDE3 inhibitory activity test (scintillation proximity assay); type: biochemical; details: PDE3 isolated from human platelets
# T1 construct: from tissue; host or cells: human platelets
# Text: (§1) The PDE5 and PDE3 were isolated form human platelets, while the PDE6 was isolated form bovine retinas. The enzyme inhibitory activity test conducted immediately after the enzymes had been isolated, using a scintillation proximity assay for the direct detection of AMP/GMP by the TRKQ7100 and TRKQ7090 kit. In summary, the effect of PDE inhibitors was investigated by assaying a fixed amount of enzyme in the presence of varying inhibitor concentrations and low substrate. The final assay volume was made up to 100 μl with 10 μl assay buffer (50 mM Tris/HCl PH 7.5, 8.3 mM MgCl2, 1.7 mM EGTA), and water. Reactions were initiated with enzyme, incubate for 30 minutes at 30° C. and terminated with 50 μl yttrium silicate SPA beads suspension containing zinc sulphate. Shook for 20 minutes and settled for 30 minutes in the dark, then counted on a BECKMAN LS6500 MULTI-PURPOSE SCINTILLATION COUNTER. The IC50 value for the compounds according the present invention was calculated according the counts.
# PDE3 is a PDE isozyme distributed mainly in heart, so the inhibiting of PDE3 may lead to side effects associated with heart. Accordingly, the inhibitory activities of some example compounds according to the invention against PDE3 were determined.
# rat corpora cavernosa = assay: Pharmacodynamic test: intracavernous pressure on electric stimulation of the cavernous nerve; type: in vivo; details: anesthetized male SD rats, 5 mg/kg orally, ratio of ICP to MBp
# Method: The test was carried out based on the methods reported (International Journal of Impotence Research 2002, 14, 251 and The Journal of Urology 1992, 147, 1124). After fasted for 12 hours, 4 male SD rats were randomized into each group. After anesthetizing the rats with sodium pentobarbital (50 mg/kg, i.p.), the penile skin was incised and the prepuce was degloved to expose completely the corpora cavernosa (CC). A needle linked to an electrophysiology instrument was inserted into the CC on the right side in order to measure the intracavernous pressure (ICP). The right carotid artery was cannulated in a similar manner to the polyethylene tube in order to monitor the mean blood pressure (MBp) continuously. […] Electric stimulation was performed at 2 Hz, for 60 s with a pulse duration of 5 ms and 3V using a stimulator. The compounds were administrated orally (5 mg/kg). The change of the ICP and MBp were monitored continuously before and after the administration. The effect of the compounds on the erection induced by electric stimulation was evaluated by the ratio of ICP to MBp. The parameter (ICP/MBp) was used to estimate the influence of the compounds to the rat corpora cavernosa. […] The statistical significance of the differences between groups was calculated using Duncan's multiple comparison.
# [1] = target: T2, PDE5 from human platelets (Homo sapiens, UniProt O76074); assay: PDE5 inhibitory activity test (scintillation proximity assay); type: biochemical
# T2 construct: from tissue; host or cells: human platelets
# Text: as §1
# According to the above-mentioned method, the inhibitory activities of some compounds of formula IA and IB according to the invention against PDE5 from human platelets were determined.
# male KM mouse = assay: Acute oral toxicity test; type: in vivo; details: single oral dose of 3 g/kg, 10 or 11 mice per group
# Method: In this test male KM mouse weighting 18-22 g were used, and 10 or 11 mouse were assigned randomly to each group. […] The animals were fasted for 12 hours before the administration.
# PDE6 from bovine retina = target: T3, PDE6 from bovine retina (Bos taurus, UniProt P11541+P23439); assay: PDE6 inhibitory activity test (scintillation proximity assay); type: biochemical; details: for IC50: PDE6 from bovine retina; for PDE6 IC50/PDE5 IC50: selectivity of PDE5 versus PDE6
# T3 construct: the PDE6 was isolated form bovine retinas; from tissue; host or cells: bovine retina
# T3 sequence (P11541 2-856 limits assumed): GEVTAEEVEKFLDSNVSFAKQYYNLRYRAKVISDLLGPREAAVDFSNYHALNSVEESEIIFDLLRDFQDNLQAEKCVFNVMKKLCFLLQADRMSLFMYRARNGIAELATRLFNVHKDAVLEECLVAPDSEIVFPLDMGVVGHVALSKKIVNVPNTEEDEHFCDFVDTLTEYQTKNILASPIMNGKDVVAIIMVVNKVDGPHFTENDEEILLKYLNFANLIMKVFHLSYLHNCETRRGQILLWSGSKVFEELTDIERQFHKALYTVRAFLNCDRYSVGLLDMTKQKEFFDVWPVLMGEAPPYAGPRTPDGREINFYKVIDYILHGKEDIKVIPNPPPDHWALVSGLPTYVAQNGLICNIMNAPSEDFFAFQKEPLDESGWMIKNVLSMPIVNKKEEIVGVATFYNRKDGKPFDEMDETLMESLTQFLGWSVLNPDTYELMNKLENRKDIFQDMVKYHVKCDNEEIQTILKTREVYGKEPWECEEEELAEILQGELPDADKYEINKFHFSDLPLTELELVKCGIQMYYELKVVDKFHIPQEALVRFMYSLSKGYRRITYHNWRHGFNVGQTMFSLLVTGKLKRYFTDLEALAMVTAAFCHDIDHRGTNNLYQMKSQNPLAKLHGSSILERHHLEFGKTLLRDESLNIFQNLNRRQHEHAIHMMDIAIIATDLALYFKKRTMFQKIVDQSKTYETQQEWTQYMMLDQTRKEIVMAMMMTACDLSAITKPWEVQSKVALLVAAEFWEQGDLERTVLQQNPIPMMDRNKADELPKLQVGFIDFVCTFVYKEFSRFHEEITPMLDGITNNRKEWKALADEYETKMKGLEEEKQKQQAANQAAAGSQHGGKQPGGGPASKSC
# T3 sequence (P23439 2-850 limits assumed): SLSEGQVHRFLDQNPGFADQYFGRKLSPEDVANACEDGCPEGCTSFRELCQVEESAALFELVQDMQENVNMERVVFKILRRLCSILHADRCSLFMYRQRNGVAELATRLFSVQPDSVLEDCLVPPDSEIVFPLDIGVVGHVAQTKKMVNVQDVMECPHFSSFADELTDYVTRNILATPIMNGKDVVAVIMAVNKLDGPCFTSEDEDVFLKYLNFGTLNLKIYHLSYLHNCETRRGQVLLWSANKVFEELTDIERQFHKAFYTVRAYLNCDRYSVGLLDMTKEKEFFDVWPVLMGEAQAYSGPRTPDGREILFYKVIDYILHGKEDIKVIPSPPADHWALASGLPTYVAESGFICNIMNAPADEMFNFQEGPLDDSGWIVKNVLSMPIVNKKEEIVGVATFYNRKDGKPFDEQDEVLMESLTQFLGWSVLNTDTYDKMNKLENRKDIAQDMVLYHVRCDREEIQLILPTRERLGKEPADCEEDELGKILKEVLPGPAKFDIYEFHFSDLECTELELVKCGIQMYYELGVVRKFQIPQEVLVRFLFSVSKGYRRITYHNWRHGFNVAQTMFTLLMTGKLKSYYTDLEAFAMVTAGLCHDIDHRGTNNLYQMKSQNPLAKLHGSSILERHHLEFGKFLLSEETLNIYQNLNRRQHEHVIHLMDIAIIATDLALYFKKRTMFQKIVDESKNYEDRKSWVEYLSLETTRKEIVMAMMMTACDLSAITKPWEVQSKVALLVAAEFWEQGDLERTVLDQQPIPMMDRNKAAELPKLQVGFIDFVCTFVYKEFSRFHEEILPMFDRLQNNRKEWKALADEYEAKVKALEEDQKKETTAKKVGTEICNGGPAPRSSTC
# Text: as §1
# [2] = PDE5 in the PDE6 selectivity table
# T1 sequence (Q14432 whole entry): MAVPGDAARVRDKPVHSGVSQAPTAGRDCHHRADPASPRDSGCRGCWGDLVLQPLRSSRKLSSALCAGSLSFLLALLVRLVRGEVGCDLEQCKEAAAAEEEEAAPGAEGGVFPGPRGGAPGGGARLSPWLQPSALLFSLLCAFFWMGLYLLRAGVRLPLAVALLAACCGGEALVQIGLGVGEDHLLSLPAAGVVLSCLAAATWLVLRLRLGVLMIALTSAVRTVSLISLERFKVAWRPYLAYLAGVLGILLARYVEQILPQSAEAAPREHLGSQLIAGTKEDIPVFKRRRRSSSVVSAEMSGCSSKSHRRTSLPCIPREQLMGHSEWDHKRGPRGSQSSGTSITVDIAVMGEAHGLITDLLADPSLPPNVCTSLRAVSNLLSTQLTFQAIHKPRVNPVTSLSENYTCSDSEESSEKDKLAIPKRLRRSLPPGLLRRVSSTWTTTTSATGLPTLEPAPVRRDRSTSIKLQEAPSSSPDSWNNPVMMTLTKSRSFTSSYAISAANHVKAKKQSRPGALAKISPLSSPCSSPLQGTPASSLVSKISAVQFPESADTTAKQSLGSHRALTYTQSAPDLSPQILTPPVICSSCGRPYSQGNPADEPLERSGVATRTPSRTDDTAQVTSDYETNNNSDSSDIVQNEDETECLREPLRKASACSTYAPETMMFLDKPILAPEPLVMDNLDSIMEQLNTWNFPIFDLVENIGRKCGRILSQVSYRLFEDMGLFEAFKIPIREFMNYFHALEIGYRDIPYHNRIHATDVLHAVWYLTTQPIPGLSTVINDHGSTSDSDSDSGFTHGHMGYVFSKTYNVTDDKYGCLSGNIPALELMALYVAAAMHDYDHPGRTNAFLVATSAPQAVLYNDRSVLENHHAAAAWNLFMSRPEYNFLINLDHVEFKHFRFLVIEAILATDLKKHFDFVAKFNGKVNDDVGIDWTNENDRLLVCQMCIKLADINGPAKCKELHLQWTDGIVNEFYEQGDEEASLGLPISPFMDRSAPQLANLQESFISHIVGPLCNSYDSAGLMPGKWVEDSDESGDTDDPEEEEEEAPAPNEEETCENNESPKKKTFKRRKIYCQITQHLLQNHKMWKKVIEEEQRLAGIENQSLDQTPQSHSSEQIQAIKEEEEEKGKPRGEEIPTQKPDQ
smiles,measurement,setting,value
"CCCOc1ccc(S(=O)(=O)N(C)CCOC(C)=O)cc1-c1nc2c(CCC)nn(C)c2c(=O)[nH]1 [Example 33, 1-methyl-5-{2-propoxy-5-[[1-methyl-1-(2-acetoxyethyl)]amidosulfonyl]phenyl}-3-n-propyl-1,6-dihydro-7H-pyrazolo[4,3-d]pyrimidin-7-one]",IC50,PDE3,30400 nM
same,ICP/BP,rat corpora cavernosa,72.3 ± 28.6
"CCCOc1ccc(S(=O)(=O)N(CC)CCN2CCOCC2)cc1-c1nc2c(CC)nn(C)c2c(=O)[nH]1 [Example 54, 1-methyl-5-{2-propoxy-5-[[1-ethyl-1-(2-morpholin-1-yl)ethyl]amidosulfonyl]phenyl}-3-ethyl-1,6-dihydro-7H-pyrazolo[4,3-d]pyrimidin-7-one]",IC50,[1]; PDE5 from human platelets,9.81 nM
same,IC50,[1]; [2],9.81 nM
same,Number of death,male KM mouse,0
same,mortality rate,male KM mouse,0%
same,IC50,PDE6 from bovine retina,235 nM
same,PDE6 IC50/PDE5 IC50,PDE6 from bovine retina,23.9
same,IC50,PDE3,16300 nM
same,ICP/BP,rat corpora cavernosa,86.3 ± 6.4
"CCCOc1ccc(S(=O)(=O)N(CCN2CCOCC2)Cc2cccnc2)cc1-c1nc2c(CCC)nn(C)c2c(=O)[nH]1 [Example 62, 1-methyl-5-{2-propoxy-5-[[1-(3-pyridylmethyl)-1-(2-morpholin-1-yl)ethyl]amidosulfonyl]phenyl}-3-n-propyl-1,6-dihydro-7H-pyrazolo[4,3-d]pyrimidin-7-one]",Number of death,male KM mouse,6
same,mortality rate,male KM mouse,60%
same,IC50,PDE3,2860 nM
same,ICP/BP,rat corpora cavernosa,69.8 ± 12.2
"CCCOc1ccc(S(=O)(=O)N(C)CCN(C)C)cc1-c1cc2c(CCC)nn(C)c2c(=O)[nH]1 [Example 75, 1-methyl-5-{2-propoxy-5-[[1-methyl-1-(2-dimethylamino)]amidosulfonyl]phenyl}-3-n-propyl-1,6-dihydro-7H-pyrazolo[4,3-d]pyrimidin-7-one]",ICP/BP,rat corpora cavernosa,74.2 ± 7.8
"CCCOc1ccc(S(=O)(=O)N(C)CCN2CCCCC2)cc1-c1nc2c(CCC)nn(C)c2c(=O)[nH]1 [Example 78, 1-methyl-5-{2-propoxy-5-[[1-methyl-1-(2-piperidin-1-yl)ethyl]amidosulfonyl]phenyl}-3-n-propyl-1,6-dihydro-7H-pyrazolo[4,3-d]pyrimidin-7-one]",IC50,[1]; PDE5 from human platelets,8.72 nM
same,ICP/BP,rat corpora cavernosa,71.6 ± 8.3
"CCCOc1ccc(S(=O)(=O)N(CCN2CCCC2)Cc2cccnc2)cc1-c1nc2c(CCC)nn(C)c2c(=O)[nH]1 [Example 89, 1-methyl-5-{2-propoxy-5-[[1-(3-pyridylmethyl)-1-(2-pyrrolidin-1-yl)ethyl]amidosulfonyl]phenyl}-3-n-propyl-1,6-dihydro-7H-pyrazolo[4,3-d]pyrimidin-7-one]",IC50,[1]; PDE5 from human platelets,7.85 nM
same,IC50,[1]; [2],7.85 nM
same,Number of death,male KM mouse,5
same,mortality rate,male KM mouse,45%
same,IC50,PDE6 from bovine retina,215 nM
same,PDE6 IC50/PDE5 IC50,PDE6 from bovine retina,27.4
same,ICP/BP,rat corpora cavernosa,70.9 ± 9.8
"CCCOc1ccc(S(=O)(=O)N(CCCOC(C)=O)CCCOC(C)=O)cc1-c1nc2c(CCC)nn(C)c2c(=O)[nH]1 [Example 93, 1-methyl-5-{2-propoxy-5-[bis(3-acetoxypropyl)amidosulfonyl]phenyl}-3-n-propyl-1,6-dihydro-7H-pyrazolo[4,3-d]pyrimidin-7-one]",IC50,[1]; PDE5 from human platelets,3.8 nM
same,Number of death,male KM mouse,0
same,mortality rate,male KM mouse,0%
same,IC50,PDE3,6000 nM
same,ICP/BP,rat corpora cavernosa,77.2 ± 24.8
"CCCOc1ccc(S(=O)(=O)N(CCO)CCN2CCOCC2)cc1-c1cc2c(CCC)nn(C)c2c(=O)[nH]1 [Example 95, 1-methyl-5-{2-propoxy-5-[[1-(2-hydroxyethyl)-1-(2-morpholin-1-yl)ethyl]amidosulfonyl]phenyl}-3-n-propyl-1,6-dihydro-7H-pyrazolo[4,3-d]pyrimidin-7-one]",ICP/BP,rat corpora cavernosa,57.2 ± 10.1
"CCCOc1ccc(S(=O)(=O)N(CC)CCCOC(C)=O)cc1-c1nc2c(CCC)nn(C)c2c(=O)[nH]1 [Example 97, 1-methyl-5-{2-propoxy-5-[[1-ethyl-1-(3-acetoxypropyl)]amidosulfonyl]phenyl}-3-n-propyl-1,6-dihydro-7H-pyrazolo[4,3-d]pyrimidin-7-one]",IC50,[1]; PDE5 from human platelets,13.1 nM
same,Number of death,male KM mouse,5
same,mortality rate,male KM mouse,45%
same,IC50,PDE3,5120 nM
same,ICP/BP,rat corpora cavernosa,72.0 ± 13.5
"CCCOc1ccc(S(=O)(=O)N(CCCO)CCCOC)cc1-c1nc2c(CCC)nn(C)c2c(=O)[nH]1 [Example 99, 1-methyl-5-{2-propoxy-5-[[1-(3-methoxypropyl)-1-(3-hydroxypropyl)]amidosulfonyl]phenyl}-3-n-propyl-1,6-dihydro-7H-pyrazolo[4,3-d]pyrimidin-7-one]",IC50,[1]; PDE5 from human platelets,4.03 nM
same,Number of death,male KM mouse,1
same,mortality rate,male KM mouse,10%
same,ICP/BP,rat corpora cavernosa,56.2 ± 9.3
"CCCOc1ccc(S(=O)(=O)N(CCOCC)CCN2CCOCC2)cc1-c1nc2c(CCC)nn(C)c2c(=O)[nH]1 [Example 111, 1-methyl-5-{2-propoxy-5-[[1-(2-ethoxyethyl)-1-(2-morpholin-1-yl)ethyl]amidosulfonyl]phenyl}-3-n-propyl-1,6-dihydro-7H-pyrazolo[4,3-d]pyrimidin-7-one]",IC50,[1]; PDE5 from human platelets,6.83 nM
same,Number of death,male KM mouse,0
same,mortality rate,male KM mouse,0%
same,IC50,PDE3,8730 nM
same,ICP/BP,rat corpora cavernosa,89.1 ± 6.9
"CCCc1nn(C)c2c(=O)[nH]c(-c3cc(S(=O)(=O)N4CCN(C)CC4)ccc3OCC)nc12 [sildenafil, Sildenafil, reference compound]",Number of death,male KM mouse,6
same,mortality rate,male KM mouse,60%
same,ICP/BP,rat corpora cavernosa,80.1 ± 5.1
